Usually fraction remaining stands for what is left of the initial amount, in per cent. In general, IC50 refers to the midpoint of a concentration-inhibition curve. By viability is commonly meant a read-out of living cells in per cent, often relative to untreated cells.

Where two headings read alike, the source gives them in different places.

The values below come from article PMC12121987, “New structural scaffolds to enhance the metabolic stability of arginine-derived PAD4 inhibitors” (Results in chemistry, 2025).

The nature of series [1]: Microsomal metabolic stability, human liver microsomes. In kind it is in vitro ADME. The conditions noted are these: both sexes, pooled liver microsomes; for remaining at 1 h, 0.2 μM: pH 7.4, 60 min, n = 3, read-out: %remaining in HLM; for half-life at 0.2 μM: pH 7.4, HLM, read-out: half-life (t1/2) in human liver microsomes. The protocol: (§1) The metabolic stability of the compounds was evaluated using mouse liver microsomes (MLM) and human liver microsomes (HLM). Each compound was tested at a final concentration of 0.2 μM to determine their half-lives. […]
(§2) Microsomal metabolic stability assay protocol
(§3) Pooled liver microsomes from male C57BL/6 mouse (MLM) and mixed gender human (HLM) were obtained from Sekisui XenoTech (Kansas City, KS). Stock solutions of compounds (1 mM) were prepared in DMSO and diluted to 10 μM working solution using phosphate buffer (100 mM, pH 7.4). Microsomes (20 mg/mL) were thawed on ice and diluted to 1 mg/mL using potassium phosphate buffer (100 mM, pH 7.4). The mixture of liver microsomes and test compounds (0.2 μM) was (1 picture or pasted object on this page, not shown here) […]
(§4) preincubated at 37°C for 10 min. Next, NADPH-regenerating system (final concentrations of 1 mM NADP+, 5 mM glucose-6-phosphate, and 1 U/mL glucose-6-phosphate dehydrogenase) as a cofactor was added to the incubation mixtures at the final volume of 1000 μL to initiate the metabolic reactions. Quenching of the metabolic reaction was performed at specific intervals: 0, 5, 15, 30, and 60 min by adding100 μL of reaction mixtures to ice-cold acetonitrile (4 volumes) containing 25 nM internal standard. The samples were kept on ice for 15 minutes, followed by protein precipitation through centrifugation at 3600 rpm for 10 minutes at4°C. Finally, the liquid chromatography-mass spectrometry/MS (LC-MS/MS) analysis was conducted on obtained supernatants. To ensure accuracy, all measurements were […]
(§5) The percent of remaining compound (%R) compared to zero sample time was obtained at each time point using LC-MS peak areas. A plot was created for the natural logarithm (ln) of % R against the incubation time to determine the elimination rate constant from the slope of the linear part. The in vitro t1/2was measured by […]
(§6) While the following Eq. (2) was used for calculating CLint (μL/min/mg): […]

A short description of series [2]: Microsomal metabolic stability, mouse liver microsomes. The series is classed as in vitro ADME. The conditions noted are these: male, C57BL/6, mouse, pooled liver microsomes; for remaining at 1 h, 0.2 μM: pH 7.4, 60 min, n = 3, read-out: %remaining in MLM; for half-life at 0.2 μM: pH 7.4, MLM. The protocol: as §1, §2, §3, §4, §5, §6
On the technique in general: Liver microsomes are vesicles of endoplasmic reticulum, rich in cytochrome P450 enzymes.

Series [3] addresses T1, PAD4 (Homo sapiens, UniProt Q9UM07).
T1 construct: purchased Cayman Chemical
The experiment in a line: PAD4 enzyme inhibition assay (Cayman PAD4 inhibitor screening kit, AMC). In kind it is biochemical. To be noted: n = 3; read-out: Inhibitory activity IC50 PAD4. The protocol:
chromatography with ACN:H2O (0.02% formic acid) as the mobile phase, and then […]
(§7) PAD4 Enzyme Inhibition Assays
(§8) PAD4 Inhibitor Screening Assay Kit (AMC) was purchased from Cayman. Different concentrations of the test compounds were added to a 96-well plate with PAD4 enzyme enzyme and incubated at 37 °C for 10 minutes or 30 minutes. Then […] was added toinitiate the reaction and incubated at 37 °C for 20 min. The reaction was terminated by the addition of Develop solution.
Fluorescence analysis was performed at excitation wavelengths of 355 ~ 365 nm and emission wavelengths of 445 ~ 455 nm. The fluorescence signal was inversely proportional to the amount ofcitrullination. IC50 were analyzed using GraphPad Prism […]
as §2
Pooled liver microsomes from male C57BL/6 mouse (MLM) and mixed gender human (HLM) were obtained from Sekisui XenoTech (Kansas City, KS). Stock solutions of compounds (1 mM) were prepared in DMSO and diluted to 10 μM working solution using phosphate buffer (100 mM, pH 7.4). Microsomes (20 mg/mL) were thawed on ice and diluted to 1 mg/mL using potassium phosphate buffer (100 mM, pH 7.4). The mixture of liver microsomes and test compounds (0.2 μM) was (1 picture or pasted object on this page, not shown here)

Another series has as its target T2, PAD1 (Homo sapiens, UniProt Q9ULC6).
T2 sequence (Q9ULC6 1-663): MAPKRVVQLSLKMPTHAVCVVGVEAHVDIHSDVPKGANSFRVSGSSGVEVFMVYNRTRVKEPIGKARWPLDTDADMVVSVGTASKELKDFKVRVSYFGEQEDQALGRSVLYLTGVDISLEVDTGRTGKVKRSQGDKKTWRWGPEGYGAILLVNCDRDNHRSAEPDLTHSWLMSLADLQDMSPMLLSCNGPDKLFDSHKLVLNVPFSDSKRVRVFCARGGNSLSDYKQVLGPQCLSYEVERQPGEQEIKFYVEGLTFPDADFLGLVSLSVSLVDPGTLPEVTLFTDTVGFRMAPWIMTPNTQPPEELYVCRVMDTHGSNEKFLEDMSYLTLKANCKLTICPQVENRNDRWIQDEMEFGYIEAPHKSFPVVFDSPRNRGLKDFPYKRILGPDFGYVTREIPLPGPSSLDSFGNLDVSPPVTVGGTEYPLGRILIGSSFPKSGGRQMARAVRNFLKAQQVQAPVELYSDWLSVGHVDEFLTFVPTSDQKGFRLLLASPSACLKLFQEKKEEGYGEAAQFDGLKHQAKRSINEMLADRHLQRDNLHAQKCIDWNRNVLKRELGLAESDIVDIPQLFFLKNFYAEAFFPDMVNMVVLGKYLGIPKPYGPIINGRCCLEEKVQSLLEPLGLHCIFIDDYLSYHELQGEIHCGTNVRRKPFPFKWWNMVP
The experiment in a line: PAD1 inhibitory activity. In kind it is biochemical. To be noted: n = 3.

The next series concerns A549 cells. The experiment in a line: MTT cytotoxicity assay. To be noted: 50 μM and 5 μM, 48-hour incubation. In kind it is cell-based. The protocol:
(§9) The cytotoxicity of three compounds on A549 cells was evaluated using the MTT assay.
(§10) In vitro cytotoxicity was evaluated using the MTT
(§11) (3-(4,5-dimethylthiazol-2-yl)-2,5-diphenyltetrazolium bromide) assay. Freshly trypsinized A549 cells were seeded into 96-well plates at a density of 5 × 10⁴ cells/mL, with 100 µL per well, and incubated at 37°C in a 5% CO₂ atmosphere for 12 hours. […]
(§12) concentrations of 500 μM, 50 μM, and 5 μM (25 µL per well), followed by 48-hour incubation. After this period, MTT solution (5 mg/mL) was added to each well at 25 µL per well, and the plates were incubated for an additional 4 hours. Control wells containing untreated cells were handled identically. Following incubation, the medium in the 96-well plate was removed, and 100 µL of DMSO was added to each well to dissolve the formazan crystals produced by the reduction of MTT in viable cells. Absorbance was measured using a microplate reader. Cell viability was determined using the following formula: Cell viability (%) = (OD-treated cells)/(OD […]
A general note: Formazan colour is commonly taken as a measure of viable cells.

A further series is described as follows: MTT cytotoxicity assay. In kind it is cell-based. The conditions noted are these: human, A549 cells, 48-hour incubation; for viability at 48 h, 500 µM: read-out: Cell viability of A549 cells; for IC50 at 48 h: read-out: IC50 against A549 cells (cytotoxicity). The protocol:
as §9, §10, §11, §12

A further series deals with PAD2 (Homo sapiens, UniProt Q9Y2J8). The series can be described thus: PAD2 inhibitory activity. The series is classed as biochemical. To be noted: n = 3.
PAD2, sequence (Q9Y2J8 whole entry, species assumed): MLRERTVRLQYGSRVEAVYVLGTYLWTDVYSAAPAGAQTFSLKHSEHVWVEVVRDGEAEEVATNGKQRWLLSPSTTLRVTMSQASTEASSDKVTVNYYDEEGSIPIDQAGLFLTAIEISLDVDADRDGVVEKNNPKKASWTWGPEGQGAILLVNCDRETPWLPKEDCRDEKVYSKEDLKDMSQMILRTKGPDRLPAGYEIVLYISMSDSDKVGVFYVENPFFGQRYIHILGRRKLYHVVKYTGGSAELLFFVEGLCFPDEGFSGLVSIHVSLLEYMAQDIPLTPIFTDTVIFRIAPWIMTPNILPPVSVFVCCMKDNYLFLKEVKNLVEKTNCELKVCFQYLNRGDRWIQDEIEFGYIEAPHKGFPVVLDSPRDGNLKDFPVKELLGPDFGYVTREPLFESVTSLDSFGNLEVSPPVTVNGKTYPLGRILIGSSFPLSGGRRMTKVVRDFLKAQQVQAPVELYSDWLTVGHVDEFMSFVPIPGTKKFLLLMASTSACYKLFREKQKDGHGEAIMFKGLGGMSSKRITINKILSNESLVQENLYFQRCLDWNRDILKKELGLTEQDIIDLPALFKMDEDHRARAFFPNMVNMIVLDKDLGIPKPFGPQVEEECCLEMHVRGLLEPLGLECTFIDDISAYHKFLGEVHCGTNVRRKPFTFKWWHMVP
In series [4] the target is T1, PAD4. The series can be described thus: Time-dependent PAD4 inhibition assay (pre-incubation 10 or 30 min). The series is classed as biochemical. The conditions noted are these: BB-Cl-amidine 1 μM, 7 125 μM, 8 45 μM, n = 3. The protocol: To test this hypothesis, the three compounds (3, 7 and 8) were further assessed through a time-dependent inhibition assay. This assay involved pre-incubating the compounds with the PAD4 enzyme for 10 and 30 min before initiation of the enzymatic reaction.
Fig. 3. Inhibition of PAD4 with a pre-incubation of the enzyme and tested compounds for 10- or 30-min. […]
as §7, §8
Fluorescence analysis was performed at excitation wavelengths of 355 ~ 365 nm and emission wavelengths of 445 ~ 455 nm. The fluorescence signal was inversely

For series [5] the following is noted: cited from earlier work.
The mark [6] stands for this setting: read-out: half-life (t1/2) in mouse liver microsomes.
The mark [7] stands for this setting: rough estimation beyond the 60 min assay, read-out: t1/2 in MLM, rough estimation.

T1 sequence (Q9UM07 whole entry): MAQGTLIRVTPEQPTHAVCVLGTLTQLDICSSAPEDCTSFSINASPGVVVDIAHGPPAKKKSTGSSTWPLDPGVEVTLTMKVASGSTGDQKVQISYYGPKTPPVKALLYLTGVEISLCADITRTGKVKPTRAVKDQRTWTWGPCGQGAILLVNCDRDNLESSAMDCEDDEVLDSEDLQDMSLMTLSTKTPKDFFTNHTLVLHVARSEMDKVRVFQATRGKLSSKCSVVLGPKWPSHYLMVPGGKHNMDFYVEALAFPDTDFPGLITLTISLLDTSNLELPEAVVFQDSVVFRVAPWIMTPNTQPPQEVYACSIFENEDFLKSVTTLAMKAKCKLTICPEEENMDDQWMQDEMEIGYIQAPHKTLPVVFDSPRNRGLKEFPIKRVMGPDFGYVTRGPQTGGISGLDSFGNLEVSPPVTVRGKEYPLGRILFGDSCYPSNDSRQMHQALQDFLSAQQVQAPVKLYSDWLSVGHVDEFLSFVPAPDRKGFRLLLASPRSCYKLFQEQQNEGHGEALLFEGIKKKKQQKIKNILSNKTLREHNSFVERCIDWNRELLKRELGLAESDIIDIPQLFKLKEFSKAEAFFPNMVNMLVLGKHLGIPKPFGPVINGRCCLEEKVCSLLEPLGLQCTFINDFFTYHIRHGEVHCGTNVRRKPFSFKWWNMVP

Take `N=C(CCl)NCCC[C@H](NC(=O)c1ccc(-c2ccccc2)cc1)c1nc2ccccc2[nH]1` [BB-Cl-amidine, reference compound]: the amount remaining at 1 h, 0.2 μM in series [1] was 51.8 ± 7.48%; in series [2], 10.4 ± 1.42%. The results for the half-life at 0.2 μM in series [1] and in series [2] (setting [6]) were 1.03 h and 0.302 h, respectively.
For `N=C(CO)NCCC[C@H](NC(=O)c1ccc(-c2ccccc2)cc1)c1nc2ccccc2[nH]1` [Compound 7], the IC50 at PAD4 [3] came to 125 ± 10.2 µM; against PAD1, 194 ± 8.21 µM; on PAD2, 352 ± 21.3 µM. In addition, the “Cytotoxicity on A549 cells” value in the series with A549 cells is given as “no cytotoxicity”. Further, the viability at 48 h, 500 µM in “MTT cytotoxicity assay” is 26.8%. The concentration for half-maximal inhibition (IC50) at 48 h in the series “MTT cytotoxicity assay” was around 455 µM. For the same compound, the results for the amount remaining at 1 h, 0.2 μM in [1] and in series [2] were 90.3 ± 10.6% and 75.9 ± 4.75%, respectively. Besides, the results for the half-life at 0.2 μM in series [1], in series [2] (setting [6]) and in series [2] (setting [7]) were above 1 h, above 1 h and around 2.65 h, respectively. Besides, at PAD4 [4], the “%inhibition of PAD4, pre-incubation 10 min” value turned out to be 31.46%. Also, on PAD4 [4], the “%inhibition of PAD4, pre-incubation 30 min” value stood at 36.86%.
With `O=C(CO)NCCC[C@H](NC(=O)c1ccc(-c2ccccc2)cc1)c1nc2ccccc2[nH]1` [Compound 8], the figures for the concentration for half-maximal inhibition (IC50) on PAD4 [3], against PAD1 and against PAD2 were 46.5 ± 4.46 µM, 32 ± 0.78 µM and 74.9 ± 6.48 µM, respectively. The “Cytotoxicity on A549 cells” value in the series with A549 cells is on record as “no cytotoxicity”. In addition, in the series “MTT cytotoxicity assay”, the viability at 48 h, 500 µM was 103%. Also, in the series “MTT cytotoxicity assay”, the IC50 at 48 h was above 500 µM. Also, the fraction remaining at 1 h, 0.2 μM is 73.2 ± 1.89% in series [1] and 63 ± 4.85% in series [2]. The half-life at 0.2 μM in series [1] is above 1 h; in series [2] (setting [6]), above 1 h; in series [2] (setting [7]), around 1.45 h. Moreover, the “%inhibition of PAD4, pre-incubation 10 min” value on PAD4 [4] worked out at 49.28%. On PAD4 [4], the “%inhibition of PAD4, pre-incubation 30 min” value is 51.44%.
Consider `N=C(CCl)NCCC[C@H](NC(=O)c1ccc(B(O)O)cc1)C(=O)NCc1ccccc1` [YJ-4B], for which, in series [5], the “t1/2 (pharmacokinetic studies)” value is reported as 0.35 h.
Take `N=C(CCl)NCCC[C@H](Nc1ccc([N+](=O)[O-])c2nonc12)C(=O)NCc1ccccc1` [ZD-E-1]: in [5] (in vivo), the “t1/2 (pharmacokinetic studies)” value is reported as 0.41 h.
